Data on one compound can be found in PubChem BioAssay AID1420 (Emory University Molecular Libraries Screening Center, 2008).

The test deals with Calpain-2 catalytic subunit (Sus scrofa) (UniProt P43367). In words: pig calpain II inhibitor potency, dose response, biochemical, fluorogenic peptide substrate (AID 1420). The following applies: purified calpain II, 30 min.

The structures appear in SMILES notation. The source made the active and inactive calls. How the calls were made is not given here.

Calpain-2 catalytic subunit (Sus scrofa), sequence (P43367 whole entry, looked up): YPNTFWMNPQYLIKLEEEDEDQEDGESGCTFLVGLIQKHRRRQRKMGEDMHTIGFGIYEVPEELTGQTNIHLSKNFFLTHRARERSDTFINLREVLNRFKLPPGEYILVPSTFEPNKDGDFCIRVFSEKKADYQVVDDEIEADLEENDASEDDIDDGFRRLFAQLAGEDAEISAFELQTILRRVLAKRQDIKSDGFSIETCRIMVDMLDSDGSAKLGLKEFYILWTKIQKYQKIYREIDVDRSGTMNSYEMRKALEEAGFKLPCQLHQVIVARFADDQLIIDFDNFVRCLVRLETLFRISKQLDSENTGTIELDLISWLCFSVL

In the case of `CC(C)(C)C1CCC(=NNc2ccc(S(N)(=O)=O)cc2[N+](=O)[O-])CC1` (stereo unspecified), the IC50 entry was “inactive”.
